Measured values taken from US20200317784A1, “METHODS AND COMPOSITIONS FOR TREATING CANCER BY MODIFYING MULTIPLE ARMS OF THE IMMUNE SYSTEM” (BioXcel Therapeutics, Inc., priority 2017, published 2020).

Legend:
[1] = test system: Pan02 tumor cells; test: Anti-tumor efficacy in Pan02 syngeneic mouse model of pancreatic carcinoma; assay type: in vivo; conditions: Pan02 s.c., C57BL/6 mice
From the text: Six to eight-week-old female C57BL/6 mice were used in the studies as supplied by Beijing Vital River Laboratory Animal Technology Co., Ltd. Mice received food and water ad libitum. The study protocol and the procedures involving the care and use of animals were reviewed and approved by the Institutional Animal Care and Use Committee (IACUC) to ensure compliance with the regulations of the Association for Assessment and Accreditation of Laboratory Animal Care (AAALAC).
Stock solutions of the PD-1 antagonist at 1 mg/ml concentrations were prepared and kept at 4° C. prior to use. Dosing solutions of the PD-1 antagonist were prepared freshly at a concentration of 1 mg/ml before every administration in sterile phosphate buffered saline (PBS), adjusted to pH 7.0, and administered at a dose of 10 mg/kg intraperitoneally (i.p) per 20 g mouse. […] Talabostat mesylate was obtained from a commercial source, and prepared freshly at a working concentration of 0.1 mg/ml before every administration in sterile phosphate buffered saline (pH 7.0), maintained at 4° C., and administered perorally (p.o.) at a total dose of 20 μg per 20 g mouse.
The tumor cells were routinely sub-cultured twice per week bytrypsin-EDTA treatment. The cells in anexponential growth phase were harvested and counted for tumor inoculation. […] The date of tumor cell inoculation was denoted as Day 0.
The dosing of the agents was started on day 5 after tumor inoculation and continued until Day 28 after tumor inoculation.
Body weight (in grams), and tumor volumes (in mm^3) were measured on Days 5, 8, 12, 15, 19, 22, 26 and 29. […] Tumor volume, expressed in mm^3, was measured with a calliper.
Data related to tumor volume are presented as mean and the standard error of the mean (SEM). Statistical analyses were conducted using Student's t-test. P<0.05 and P<0.001 were considered statistically significant.
% Tumor reduction=(Mean tumor volume^vehicle control−Mean tumor volume^treatmet_group)/Mean tumor volume^vehicle control×100Table 1B. Results

[2] = test system: Ly6G+ cells (tumoricidal neutrophils); test: IHC of neutrophil infiltrate in Pan02 tumor samples; conditions: Day 8; compared to vehicle and PD-1 antagonist alone
Protocol: Tumor samples from the study groups were analyzed for infiltration of immune cells. […] The data was analyzed using GraphPad Prism 5. p<0.05 was statistically significant (*, p<0.05; **, p<0.01; ***, p<0.001).

[3] = test system: melanoma; conditions: melanoma patients; Postow et al. 2015; cited from earlier work

Row | Molecule | % Tumor Reduction compared to vehicle control ([1]; Day 19 after tumor inoculation) [%] | % Tumor Reduction compared to vehicle control ([1]; Day 22 after tumor inoculation) [%] | % Tumor Reduction compared to vehicle control ([1]; Day 26 after tumor inoculation) [%] | % Tumor Reduction compared to vehicle control ([1]; Day 29 after tumor inoculation) [%] | Ly6G+ cells in tumor (IHC) [2] | response rate [3] [%]
1 | CC(C)[C@H](N)C(=O)N1CCC[C@H]1B(O)O.CS(=O)(=O)O [Talabostat mesylate, [(2R)-1-[(2S)-2-amino-3-methylbutanoyl]pyrrolidin-2-yl]boronic acid; methanesulfonic acid] | 61.23 | 58.18 | 65.42 | 65.61 | significant increase | –
2 | ipilimumab: human monoclonal anti-CTLA-4 antibody | – | – | – | – | – | 11
3 | nivolumab | – | – | – | – | – | 32
